{
  "source": "patent US10668058B2",
  "about": "“Device and method for delivery of a medicament” (Philip Morris Products S.A., priority 2007, dated 2020)",
  "origin": "cited, not measured here",
  "settings": "25° C.",
  "data": [
    {"smiles": "CN1CCCC1c1cccnc1", "note": "(stereo not shown) [Nicotine only, Nicotine]", "values": [
      {"measurement": "vapor pressure", "value": 0.04, "unit": "mm Hg"}
    ]}
  ]
}
